Patent publication US20250154179A1, “GOLD (I) GEFITINIB DERIVATIVES AND PREPARATION METHOD AND APPLICATION THEREOF” (TONGJI HOSPITAL, TONGJI MEDICAL COLLEGE, HUAZHONG …, priority 2023, published 2025)

Tests used:
[1] = system: drug-resistant subcutaneous tumors; assay: subcutaneous drug-resistant tumor model in nude mice; conditions: in vivo and in vitro
Experimental: (§1) The present invention further provides an application of a gold (I) Gefitinib derivative, mainly providing the study of the effect of Embodiment 8 (L1Au2 for short). […] L1Au2 is mainly used to treat lung cancer resistant to first- and second-generation EGFR-TKI. In vitro experiments on L1Au2 were conducted against Gefitinib-sensitive and Gefitinib-resistant lung cancer. […] The cell lines used in the experiment are internationally universal lung cancer tumor cell lines: Gefitinib-sensitive lung cancer cell line PC9, and Gefitinib-resistant cell lines PC9GR and H1975. […] See FIG. 3 for the effect diagram of a specific product.

[2] = system: thioredoxin reductase; assay: thioredoxin reductase activity; format: biochemical
Experimental: as §1

[3] = system: lung cancer cell lines PC9, PC9GR and H1975; assay: plate cloning (colony formation) experiment; format: cell-based
Experimental: as §1

[4] = target: T1, GPX4 protein (Homo sapiens, UniProt P36969); assay: GPX4 protein degradation; format: cell-based; conditions: by promoting autophagy and inducing GPX4 ubiquitination
T1 construct: endogenous in cells; host or cells: Gefitinib-resistant lung cancer cells (PC9GR / H1975; not specified which)
T1 sequence (P36969 1-197): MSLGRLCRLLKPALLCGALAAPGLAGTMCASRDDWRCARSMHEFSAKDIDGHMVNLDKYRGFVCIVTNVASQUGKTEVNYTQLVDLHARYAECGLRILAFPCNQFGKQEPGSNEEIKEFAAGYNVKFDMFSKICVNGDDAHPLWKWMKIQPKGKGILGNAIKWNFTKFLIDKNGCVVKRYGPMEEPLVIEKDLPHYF
Experimental: as §1

[5] = system: lung cancer cells; assay: Annexin V-FITC/PI double staining apoptosis assay; format: cell-based
Experimental: as §1

[6] = system: Gefitinib-resistant lung cancer cells; assay: mitochondrial damage, oxidative stress and ferroptosis in resistant cells; format: cell-based
Experimental: as §1

[7] = system: EGFR-related pathway; assay: EGFR-related pathway activation; format: cell-based
Experimental: as §1

[8] = system: lung cancer cell lines PC9, PC9GR and H1975; assay: CCK-8 proliferation / cell death experiment; format: cell-based
Experimental: as §1

[9] = system: lung cancer cells; assay: Transwell migration experiment; format: cell-based
Experimental: as §1

With `COc1cc2ncnc(Nc3ccc(F)c(Cl)c3)c2cc1OCCCC#[C][Au][PH]12CN3CN(CN(C3)C1)C2` [Embodiment 8] the “performance compared with Gefitinib against drug-resistant tumors” value [1] was “performs better than Gefitinib”, the thioredoxin reductase activity [2] was “inhibits thioredoxin reductase activity” and the “colony formation ability of lung cancer cells (FIG. 2B)” value [3] was “significantly inhibits the colony formation ability”. The GPX4 protein level [4] was “degrades GPX4 protein”, the “apoptosis of lung cancer cells (FIG. 2D)” value [5] was “significantly promoted the apoptosis” and the intracellular mitochondrial damage [6] was “induces intracellular mitochondrial damage”. The “intracellular oxidative stress level” value [6] was “severely induces elevation of the intracellular oxidative stress level”, the ferroptosis ([6]; Gefitinib-resistant lung cancer cells) was “resulting in ferroptosis” and the EGFR-related pathway activation [7] was “inhibits EGFR-related pathway activation”. For the same compound, the “lung cancer cell death over time (FIG. 2A)” value ([8]; CCK8) was “induces lung cancer cell death in a time-dependent manner”, the inhibition of proliferation ([8]; CCK-8 and plate cloning, PC9, PC9GR, H1975) was “obvious effect on inhibiting proliferation” and the “migration ability of lung cancer cells (FIG. 2C)” value [9] was “significantly inhibited the migration ability”.
